Measurements reported in patent US20100317863A1, “Glucocorticoid Mimetics, Methods of Making Them, Pharmaceutical Compositions and Uses Thereof” (BOEHRINGER INGELHEIM INTERNATIONAL GMBH, priority 2007, published 2010).

Target: T1, human glucocorticoid receptor (GR) complex (Homo sapiens, UniProt P04150)
T1 construct: made in house; host or cells: insect expression system (baculovirus lysate)
T1 sequence (P04150 1-777): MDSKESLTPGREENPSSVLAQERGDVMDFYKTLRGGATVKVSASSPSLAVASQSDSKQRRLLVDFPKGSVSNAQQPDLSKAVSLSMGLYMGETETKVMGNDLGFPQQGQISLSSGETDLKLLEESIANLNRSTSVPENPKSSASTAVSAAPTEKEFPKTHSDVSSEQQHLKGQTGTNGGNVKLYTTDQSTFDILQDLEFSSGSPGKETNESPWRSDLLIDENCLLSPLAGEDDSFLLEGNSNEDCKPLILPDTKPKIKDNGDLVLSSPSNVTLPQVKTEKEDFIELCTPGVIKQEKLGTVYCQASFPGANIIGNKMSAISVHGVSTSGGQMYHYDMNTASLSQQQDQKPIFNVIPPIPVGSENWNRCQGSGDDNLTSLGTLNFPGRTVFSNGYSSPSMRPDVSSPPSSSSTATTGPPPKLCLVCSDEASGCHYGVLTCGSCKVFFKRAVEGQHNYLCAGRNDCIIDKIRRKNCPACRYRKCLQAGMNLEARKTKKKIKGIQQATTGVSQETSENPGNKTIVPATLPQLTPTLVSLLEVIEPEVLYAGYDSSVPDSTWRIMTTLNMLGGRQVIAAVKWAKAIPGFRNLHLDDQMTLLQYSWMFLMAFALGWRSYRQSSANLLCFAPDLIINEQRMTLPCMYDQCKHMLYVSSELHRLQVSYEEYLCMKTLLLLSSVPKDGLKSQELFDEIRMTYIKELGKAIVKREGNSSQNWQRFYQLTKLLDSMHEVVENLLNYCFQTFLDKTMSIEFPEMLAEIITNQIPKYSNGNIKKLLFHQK
Assay: Glucocorticoid Receptor Competitive Binding Assay (fluorescence polarization)
Conditions: competition with TAMRA-labeled dexamethasone; potent activity
Protocol: Compounds of the invention were evaluated for binding to the steroid receptor by a fluorescence polarization competitive binding assay. Detailed descriptions for preparation of recombinant glucocorticoid receptor (GR) complex used in the assay is described in U.S. Patent Application Publication No. US 2003/0017503, filed May 20, 2002, and incorporated herein by reference in its entirety. Preparation of the tetramethylrhodamine (TAMRA)-labeled dexamethasone probe was accomplished using a standard literature procedure (M. Pons et al., J. Steroid Biochem., 1985, 22, pp. 267-273).
This assay uses fluorescence polarization (FP) to quantitate the ability of test compounds to compete with tetramethylrhodamine (TAMRA)-labeled dexamethasone for binding to a human glucocorticoid receptor (GR) complex prepared from an insect expression system. The assay buffer was: 10 mM TES, 50 mM KCl, 20 mM Na2MoO4.2H2O, 1.5 mM EDTA, 0.04% w/v CHAPS, 10% v/v glycerol, 1 mM dithiothreitol, pH 7.4. Test compounds were dissolved to 1 mM in neat DMSO and then further diluted to 10× assay concentration in assay buffer supplemented with 10% v/v DMSO. Test compounds were serially diluted at 10× assay concentrations in 10% DMSO-containing buffer in 96-well polypropylene plates. Binding reaction mixtures were prepared in 96-well black Dynex microtiter plates by sequential addition of the following assay components to each well: 15 μL of 10× test compound solution, 85 μL of GR-containing baculovirus lysate diluted 1:170 in assay buffer, and 50 μL of 15 nM TAMRA-labeled dexamethasone. Positive controls were reaction mixtures containing no test compound; negative controls (blanks) were reaction mixtures containing 0.7 μM to 2 μM dexamethasone. The binding reactions were incubated for 1 hour at room temperature and then read for fluorescence polarization in the LJL Analyst set to 550 nm excitation and 580 nm emission, with the Rhodamine 561 dichroic mirror installed. IC50 values were determined by iterative non-linear curve fitting of the FP signal data to a 4-parameter logistic equation.

| SMILES | IC50 |
| --- | --- |
| CC[C@@H](Cn1ccc2cc(C(=O)OC)ccc21)NS(=O)(=O)c1c(C)cc(C)cc1C [1-[(S)-2-(2,4,6-Trimethylbenzenesulfonylamino)butyl]-1H-indole-5-carboxylic acid methyl ester] | ≤ 100 nM |
| CC[C@@H](Cn1cc(C(N)=O)c2cc(F)ccc21)NS(=O)(=O)c1c(Cl)cc(Br)cc1Cl [1-[(S)-2-(4-Bromo-2,6-dichlorobenzenesulfonylamino)butyl]-5-fluoro-1H-indole-3-carboxylic acid amide] | ≤ 100 nM |
| CCC(Cn1cc(C)c2ccccc21)NS(=O)(=O)c1c(Cl)cc(Cl)cc1Cl (stereo not shown) [2,4,6-Trichloro-N-[1-(3-methylindol-1-ylmethyl)propyl]benzenesulfonamide] | ≤ 100 nM |
| Cc1ccc2c(c1)CCCN2CC(NS(=O)(=O)c1c(Cl)cc(Cl)cc1Cl)C(C)C (stereo not shown) [2,4,6-Trichloro-N-[2-methyl-1-(6-methyl-3,4-dihydro-2H-quinolin-1-ylmethyl)propyl]benzenesulfonamide] | ≤ 100 nM |
| CCC(Cn1cc(C)c2ccccc21)NS(=O)(=O)c1c(C)cc(C)cc1C (stereo not shown) [2,4,6-Trimethyl-N-[1-(3-methylindol-1-ylmethyl)propyl]benzenesulfonamide] | ≤ 100 nM |
| CC[C@@H](Cc1cccc2c1ccn2C)NS(=O)(=O)c1c(C)cc(C)cc1C [2,4,6-Trimethyl-N—[(S)-1-(1-methyl-1H-indol-4-ylmethyl)propyl]benzenesulfonamide] | ≤ 100 nM |
| CC[C@@H](Cc1ccc2ccn(C)c2c1)NS(=O)(=O)c1c(C)cc(C)cc1C [2,4,6-Trimethyl-N—[(S)-1-(1-methyl-1H-indol-6-ylmethyl)propyl]benzenesulfonamide] | ≤ 100 nM |
| CC[C@@H](Cc1cccc2ccn(C)c12)NS(=O)(=O)c1c(C)cc(C)cc1C [2,4,6-Trimethyl-N—[(S)-1-(1-methyl-1H-indol-7-ylmethyl)propyl]benzenesulfonamide] | ≤ 100 nM |
| CC[C@@H](Cn1cc(C)c2ccccc21)NS(=O)(=O)c1c(C)cc(C)cc1C [2,4,6-Trimethyl-N—[(S)-1-(3-methylindol-1-ylmethyl)propyl]benzenesulfonamide] | ≤ 100 nM |
| CC[C@@H](Cn1cc(-c2ccc(C)cc2)c2ccccc21)NS(=O)(=O)c1c(C)cc(C)cc1C [2,4,6-Trimethyl-N—[(S)-1-(3-p-tolylindol-1-ylmethyl)propyl]benzenesulfonamide] | ≤ 100 nM |
| CC[C@@H](Cn1cc(-c2cccnc2)c2ccccc21)NS(=O)(=O)c1c(C)cc(C)cc1C [2,4,6-Trimethyl-N—[(S)-1-(3-pyridin-3-ylindol-1-ylmethyl)propyl]benzenesulfonamide] | ≤ 100 nM |
| Cc1cc(C)c(S(=O)(=O)NC(Cn2cc(C)c3ccccc32)C(C)C)c([N+](=O)[O-])c1 (stereo not shown) [2,4-Dimethyl-N-[2-methyl-1-(3-methylindol-1-ylmethyl)propyl]-6-nitrobenzenesulfonamide] | ≤ 100 nM |
| CC[C@@H](Cn1cc(C)c2ccccc21)NS(=O)(=O)c1c(C)cc(C)cc1[N+](=O)[O-] [2,4-Dimethyl-N—[(S)-1-(3-methylindol-1-ylmethyl)propyl]-6-nitrobenzenesulfonamide] | ≤ 100 nM |
| Cc1cc(C)c(S(=O)(=O)N[C@@H](C)Cn2cc(C)c3ccccc32)c([N+](=O)[O-])c1 [2,4-Dimethyl-N—[(S)-1-methyl-2-(3-methylindol-1-yl)-ethyl]-6-nitrobenzenesulfonamide] | ≤ 100 nM |
| CC(C)C(Cn1ccc2ccccc21)NS(=O)(=O)c1c(N)cc(Cl)cc1Cl (stereo not shown) [2-Amino-4,6-dichloro-N-(1-indol-1-ylmethyl-2-methylpropyl)benzenesulfonamide] | ≤ 100 nM |
| CCC(Cn1cc(C)c2ccccc21)NS(=O)(=O)c1c(N)cc(Cl)cc1Cl (stereo not shown) [2-Amino-4,6-dichloro-N-[1-(3-methylindol-1-ylmethyl)propyl]benzenesulfonamide] | ≤ 100 nM |

| SMILES | IC50 |
| --- | --- |
| Cc1cn(CC(NS(=O)(=O)c2c(N)cc(Cl)cc2Cl)C(C)C)c2ccccc12 (stereo not shown) [2-Amino-4,6-dichloro-N-[2-methyl-1-(3-methylindol-1-ylmethyl)propyl]benzenesulfonamide] | ≤ 100 nM |
| CC[C@@H](Cn1ccc2ccccc21)NS(=O)(=O)c1c(N)cc(Cl)cc1Cl [2-Amino-4,6-dichloro-N—((S)-1-indol-1-ylmethylpropyl)benzenesulfonamide] | ≤ 100 nM |
| CC(C)[C@@H](Cn1cc(C#N)c2ccccc21)NS(=O)(=O)c1c(N)cc(Cl)cc1Cl [2-Amino-4,6-dichloro-N—[(S)-1-(3-cyanoindol-1-ylmethyl)-2-methylpropyl]benzenesulfonamide] | ≤ 100 nM |
| CC[C@@H](Cn1cc(C#N)c2ccccc21)NS(=O)(=O)c1c(N)cc(Cl)cc1Cl [2-Amino-4,6-dichloro-N—[(S)-1-(3-cyanoindol-1-ylmethyl)propyl]benzenesulfonamide] | ≤ 100 nM |
| CC[C@@H](Cn1cc(C)c2ccccc21)NS(=O)(=O)c1c(N)cc(Cl)cc1Cl [2-Amino-4,6-dichloro-N—[(S)-1-(3-methylindol-1-ylmethyl)propyl]benzenesulfonamide] | ≤ 100 nM |
| CC[C@@H](Cn1cc(-c2ccccc2)c2ccccc21)NS(=O)(=O)c1c(N)cc(Cl)cc1Cl [2-Amino-4,6-dichloro-N—[(S)-1-(3-phenylindol-1-ylmethyl)propyl]benzenesulfonamide] | ≤ 100 nM |
| Cc1cn(C[C@@H](NS(=O)(=O)c2c(N)cc(Cl)cc2Cl)C(C)C)c2ccccc12 [2-Amino-4,6-dichloro-N—[(S)-2-methyl-1-(3-methylindol-1-ylmethyl)propyl]benzenesulfonamide] | ≤ 100 nM |
| CC[C@@H](Cn1cc(C)c2ccccc21)NS(=O)(=O)c1c(C)cc(C)cc1N [2-Amino-4,6-dimethyl-N—[(S)-1-(3-methylindol-1-ylmethyl)propyl]benzenesulfonamide] | ≤ 100 nM |
| Cc1cc(C)c(S(=O)(=O)N[C@H](Cn2cc(C)c3ccccc32)C(C)C)c(N)c1 [2-Amino-4,6-dimethyl-N—[(S)-2-methyl-1-(3-methylindol-1-ylmethyl)propyl]benzenesulfonamide] | ≤ 100 nM |
| CC[C@@H](Cn1cc(C#N)c2cc(F)ccc21)NS(=O)(=O)c1c(C)cc(C)cc1N [2-Amino-N—[(S)-1-(3-cyano-5-fluoroindol-1-ylmethyl)propyl]-4,6-dimethylbenzenesulfonamide] | ≤ 100 nM |
| CC[C@@H](Cn1cc(C#N)c2cccc(F)c21)N(C)S(=O)(=O)c1c(C)cc(C)cc1N [2-Amino-N—[(S)-1-(3-cyano-7-fluoroindol-1-ylmethyl)propyl]-4,6,N-trimethylbenzenesulfonamide] | ≤ 100 nM |
| Cc1cc(C)c(S(=O)(=O)N[C@H](Cn2cc(C#N)c3ccccc32)C(C)C)c(N)c1 [2-Amino-N—[(S)-1-(3-cyanoindol-1-ylmethyl)-2-methylpropyl]-4,6-dimethylbenzenesulfonamide] | ≤ 100 nM |
| CC[C@@H](Cn1cc(CC#N)c2ccccc21)NS(=O)(=O)c1c(C)cc(C)cc1N [2-Amino-N—[(S)-1-(3-cyanomethylindol-1-ylmethyl)propyl]-4,6-dimethylbenzenesulfonamide] | ≤ 100 nM |
| CC[C@@H](Cn1cc(C)c2cccc(F)c21)NS(=O)(=O)c1c(C)cc(C)cc1N [2-Amino-N—[(S)-1-(7-fluoro-3-methylindol-1-ylmethyl)propyl]-4,6-dimethylbenzenesulfonamide] | ≤ 100 nM |
| Cc1cc(C)c(S(=O)(=O)N[C@@H](C)Cn2cc(C#N)c3cc(F)ccc32)c(N)c1 [2-Amino-N—[(S)-2-(3-cyano-5-fluoroindol-1-yl)-1-methylethyl]-4,6-dimethylbenzenesulfonamide] | ≤ 100 nM |
